Structures can show the parent of a compound that is named as a salt.
Legend:
[1] = tested on: tumor-bearing mouse model (non-small cell lung cancer model accompanied by ghrelin resistance); assay: Example 2: food intake and body weight in tumor-bearing mouse model (A549 cells transplanted into nude mice); format: in vivo
Protocol: Using tumor-bearing model animals where adenocarcinoma human alveolar basal epithelial cells, A549 cells, were transplanted into nude mice, examination was performed about drug efficacy of Compounds 1 and 2 on the food intake and the body weight.
(§1) Subculture of A549 cells was performed using a 10% FBS-containing RPMI1640 culture medium. In evaluation of drug efficacy, 7-week old female BALB/C slc/nu/nu mice (Japan SLC, Inc.) were purchased, and were used after habituated for one week. Tumor-bearing model animals were prepared as follows. Specifically, 2.5×10^7 cells of A549 cells were transplanted to the right abdominal region of each mouse by subdermal administration. On Day 43 from the cell transplantation, the mice were divided into groups to have an equal averaged tumor volume.
The effects of a variety of compounds on food intake and body weight were examined as follows. Specifically, for 5 days from Day 44 to Day 48 from the cell plantation, Compound 2 was intraperitoneally administered daily, Compound 1 and anamorelin hydrochloride were orally administered daily, and the amount of feed and the body weight were measured at the same time. Compound 2 was used at 1 mg/kg (9 animals), and Compound 1 was used at 0.25 mg/kg (9 animals), which is the lowest dose to exert drug efficacy. To verify that the model animals are in a ghrelin resistant state, anamorelin hydrochloride was used at 30 mg/kg (9 animals) herein. The food intake was calculated by subtracting the weight of feed on the previous day of measurement from the weight of feed on the day of measurement.
In FIG. 3, the ordinate represents the cumulative food intake in the period of administration of the compounds (from the start of administration to the day next to the final day of administration). In FIG. 4, the ordinate represents the percentage of changes in body weight on Day 6 from the start of administration of the compounds (the day next to the final day of administration) (after 5-day administration) (relative to the body weight measured immediately before the first administration of the compound designated as 100%). In the abscissas of FIGS. 3 and 4, “Normal saline” represents a group treated intraperitoneally with normal saline, “Compound 2” represents a group treated intraperitoneally with Compound 2 at 1 mg/kg, “Compound 1” represents a group treated orally with Compound 1 at 0.25 mg/kg, and “Aanamorelin” represents a group treated orally with anamorelin hydrochloride at 30 mg/kg. In FIGS. 3 and 4, the mark “*” represents a statistical significance (*: P<0.05) compared to the group treated with normal saline (Dunnett's multiple test).

[2] = tested on: tumor-bearing mouse model (non-small cell lung cancer model accompanied by ghrelin resistance); assay: Example 1: food intake and body weight in tumor-bearing mouse model (A549 cells transplanted into nude mice); format: in vivo; details: for body weight after 5-day administration / cumulative food intake in the period of administration: vs distilled water group
Protocol: Using tumor-bearing model animals where adenocarcinomic human alveolar basal epithelial cells, A549 cells, were transplanted into nude mice, examination was performed about drug efficacy of Compound 1 on the food intake and the body weight.
as §1, with “6-week-old” for “7-week old”
The effects of a variety of compounds on food intake and body weight were examined as follows. Specifically, for 5 days from Day 44 to Day 48 from the cell transplantation, the compounds were orally administered daily, and the food intake and the body weight were measured at the same time. The doses of Compound 1 were 0.25 mg/kg (6 animals), 0.5 mg/kg (6 animals), and 1 mg/kg (6 animals). To verify that the model animals are in a ghrelin resistant state, anamorelin hydrochloride (MedChemExpress) was used at 30 mg/kg (6 animals). The food intake was calculated by subtracting the weight of feed on the previous day of measurement from the weight of feed on the day of measurement.
In FIG. 1, the ordinate represents the cumulative food intake in the period of administration of the compounds (from the start of administration to the day next to the final day of administration). In FIG. 2, the ordinate represents the percentage of changes in body weight on Day 6 from the start of administration of the compounds (the day next to the final day of administration) (after 5-day administration) (relative to the body weight measured immediately before the first administration of the compound designated as 100%). In the abscissas of FIGS. 1 and 2, “Distilled water” represents distilled water-treated group, “Compound 1 0.25” represents Compound 1-treated group at 0.25 mg/kg, “Compound 1 0.5” represents Compound 1-treated group at 0.5 mg/kg, “Compound 1 1” represents Compound 1-treated group at 1 mg/kg, and “Anamorelin” represents anamorelin hydrochloride-treated group at 30 mg/kg. In FIGS. 1 and 2, the mark “*” represents a statistical significance (*: P<0.05) in comparison with distilled water-treated group (Dunnett's multiple test).

normal animal = details: anamorelin hydrochloride 30 mg/kg; cited from earlier work
[3] = tested on: model of non-small cell lung cancer to which A549 cells have been transplanted subcutaneously; details: cited from earlier work
[4] = Compound 1 0.25 mg/kg oral daily for 5 days, compared with Compound 2 1 mg/kg i.p.
[5] = Compound 2 1 mg/kg intraperitoneal daily for 5 days, vs normal saline group, Dunnett P<0.05
[6] = anamorelin hydrochloride 30 mg/kg oral daily for 5 days

CN(C(=O)/C=C/c1ccoc1)[C@@H]1CC[C@@]2(O)[C@H]3Cc4ccc(O)c5c4[C@@]2(CCN3CC2CC2)[C@H]1O5 [Compound 1, (−)-17-(cyclopropylmethyl)-3,14β-dihydroxy-4,5α-epoxy-6β-[N-methyl-trans-3-(3-furyl)acrylamide]morphinan hydrochloride]
body weight after 5-day administration [1, 4]: increasing effect in body weight higher than those exhibited by Compound 2 | cumulative food intake in the period of administration [1, 4]: increasing effect in food intake and the increasing effect in body weight higher than those exhibited by Compound 2 | body weight after 5-day administration ([2]; Compound 1 0.25 mg/kg oral daily for 5 days): tendency of an increase in body weight | body weight after 5-day administration ([2]; Compound 1 0.5 mg/kg oral daily for 5 days, Dunnett P<0.05): statistically significant increasing effect in body weight | body weight after 5-day administration ([2]; Compound 1 1 mg/kg oral daily for 5 days, Dunnett P<0.05): statistically significant increasing effect in body weight | cumulative food intake in the period of administration ([2]; Compound 1 0.25, 0.5 and 1 mg/kg oral daily for 5 days (Day 44-48 from transplantation), Dunnett P<0.05): statistically significant increasing effect in food intake | lowest dose to exert drug efficacy ([2]; oral, tumor-bearing mouse model): 0.25 mg/kg

CC(C)C[C@@H](NC(=O)[C@@H](Cc1ccccc1)NC(=O)[C@H](N)Cc1ccccc1)C(=O)N[C@H](CCCCN)C(=O)N1CCC(N)(C(=O)O)CC1 [Compound 2, 4-amino-1-[(2R)-6-amino-2-[(2R)-2-[(2R)-2-[(2R)-2-amino-3-phenylpropanamide]-3-phenylpropanamide]-4-methylpentanamide]hexanoyl]piperidine-4-carboxylic acid]
body weight after 5-day administration [1, 5]: statistically significant increasing effect in body weight | cumulative food intake in the period of administration [1, 5]: statistically significant increasing effect in food intake

CN(C)N(C)C(=O)[C@@]1(Cc2ccccc2)CCCN(C(=O)[C@@H](Cc2c[nH]c3ccccc23)NC(=O)C(C)(C)N)C1 [anamorelin hydrochloride, reference compound]
body weight (normal animal): increase in body weight | therapeutic effects on cachexia ([1]; anamorelin hydrochloride 30 mg/kg oral, administered from Day 44 after cell transplantation (Examples 1 and 2)): no therapeutic effects were observed on cachexia | body weight ([3]; anamorelin hydrochloride 30 mg/kg, A549 cells transplanted subcutaneously in the abdominal region): increase in body weight | therapeutic effects on cachexia ([3]; anamorelin hydrochloride administered on Day 23 from cell transplantation): achieved therapeutic effects on cachexia | body weight after 5-day administration [2, 6]: any statistically significant increasing effect in food intake or increasing effect in body weight was not observed | cumulative food intake in the period of administration [2, 6]: any statistically significant increasing effect in food intake or increasing effect in body weight was not observed

Source: patent publication US12721845B2, “Therapeutic or prophylactic agent for cachexia accompanied by ghrelin resistance” (Toray Industries, Inc., priority 2021, dated 2026)
